ChEMBL document CHEMBL1124029, “Novel DNA groove binding alkylators: design, synthesis, and biological evaluation” (1988)

system: Vaccinia virus; test: Minimum inhibitory concentration required to reduce virus induced cytopathogenicity by 50% against vaccinia virus in rabbit primary kidney cell cultures; type: functional; conditions: Orthopoxvirus vaccinia

`Cl.Cn1cc(NC(=O)c2cc(NC(=O)CF)cn2C)cc1C(=O)NCCC(=N)N` and `Cl.Cn1cc(NC(=O)c2cc(NC(=O)CCl)cn2C)cc1C(=O)NCCC(=N)N` are within 1.5-fold of each other in MIC: 7 µg/mL for the first, 10 µg/mL for the second.

Compared with `Cl.Cl.Cn1cc(NC(=O)c2cc(NC(=O)CNC(=N)N)cn2C)cc1C(=O)NCCC(=N)N` [CONGOCIDINE], `Cl.Cn1cc(NC(=O)c2cc(NC(=O)CCCCl)cn2C)cc1C(=O)NCCC(=N)N` is 10-fold higher in MIC: 2 µg/mL for the first, 20 µg/mL for the second.

`Cl.Cn1cc(NC(=O)c2cc(NC(=O)C(Cl)(Cl)Cl)cn2C)cc1C(=O)NCCC(=N)N` and `Cl.Cn1cc(NC(=O)c2cc(NC(=O)C3CC3)cn2C)cc1C(=O)NCCC(=N)N` cannot be ordered by MIC: over 100 µg/mL for the first, over 100 µg/mL for the second.

Going from `CC[N+](CC)(CC)CC.Cn1cc(NC(=O)c2cc(NC(=O)C(Cl)Cl)cn2C)cc1C(=O)NCCC(=N)N.O=S(=O)([O-])O` to `Cl.Cl.Cn1cc(NC(=O)c2cc(NC(=O)c3cc(NC=O)cn3C)cn2C)cc1C(=O)NCCC(=N)N`, the MIC falls from 20 µg/mL to 0.2 µg/mL (100-fold).
